# Target: T1, Kv7.2/7.3 (Homo sapiens, UniProt O43525+O43526)
# T1 construct: Kv7.3 is constitutive and Kv7.2 is tetracycline-induced
# Test: Kv7.2/7.3 Thallium Flux Assay (FluxOR II Green)
# Assay type: cell-based
# Conditions: single concentration of 10 μM; fluorescence at 90 sec normalized to positive control (retigabine, 30 μM); hKv7.2/7.3 cell line
# From the text: The Thallium Flux Assay is used as a surrogate indicator of potassium channel activity.
# The experimental protocol was adapted from the FluxOR™ II Green Potassium Ion Channel Assay User Guide (Pub. No. MAN0016084, Invitrogen). Conditions were optimized for the Kv7.2/7.3 cell line.
# Cell Line: The hKV7.2/7.3 cell line was obtained from Chantest (cat. #CT6147).
# Cell Culture: Kv7.2/7.3 cells were maintained in a media containing DMEM/F12; 50/50 (Fisher 11-330), 10% Fetal Bovine Serum (FBS) (Fisher 26-140), 100 units/mL Penicillin-Streptomycin (Fisher 15-140), 0.005 mg/ml Blasticidin (InvivoGen ant-bl-1), 0.5 mg/mL Geneticin (InvivoGen ant-gn-5), and 0.1 mg/mL Zeocin (Fisher R25001). One day prior to experimentation, cells were plated in 96 well clear bottom plates (Corning cat. #353219) in a media without Blasticidin, Geneticin, or Zeocin. In this cell line Kv7.3 channel expression is controlled by a constitutive promoter. Kv7.2 channel expression was induced by adding tetracycline (Sigma T7660) at a final concentration of 10 ng/mL overnight in a cell culture incubator at 37° C. and 5% CO2. On the day of assay, the cell culture medium in the 96-well plates was replaced by assay buffer containing the thallium-sensitive fluorescent sensor, FluxOR II Green prepared according to manufacturer's instructions. The 96-well plates were then incubated for 1 h at 37° C. Following the incubation, the FluxOR II Green-containing solution was replaced with extracellular solution.
# Test Compound Plates: The test compound is diluted in a mixture of 0.1% DMSO/extracellular solution at a single concentration of 10 μM. Dilutions were made on a Biomek NXP (BECKMAN COULTER). Extracellular solution contained (in mM: 145 NaCl, 4 KCl, 2 CaCl2), 1 MgCl2, 10 HEPES, and 10 Glucose, pH 7.4)
# Measurement and data analysis: Thallium-flux-mediated changes in intracellular fluorescence were made using a plate reader (Enspire, Perkin Elmer) set with an excitation wavelength of 475 nm and an emission wavelength of 530 nm. After a 15 sec baseline measurement, the stimulus buffer containing thallium and potassium was added to the 96-well plate containing FluxOR II Green-loaded cells and test compounds. Fluorescence values at 90 sec were normalized to the positive control (retigabine, 30 μM) and test compound activities were assigned categories according to the formula: “No Activity <0.15, “+” Moderate Activity 0.15-0.7, and “++” High Activity >0.7.
row,Compound,Kv7.2/7.3 Activity
1,"O=C(Nc1[nH]nc(C2CC(F)(F)C2)c1C1CCC1)OC1CC(F)(F)C1 [Compound 7, 3,3-difluorocyclobutyl (4-cyclobutyl-3-(3,3-difluorocyclobutyl)-1H-pyrazol-5-yl)carbamate]",++ (“++” High Activity ≥0.7)
2,"O=C(Nc1n[nH]c(-c2ccc(Cl)s2)c1C1CCC1)C1CC(C(F)(F)F)C1 (stereo not shown) [Compound 4, N-(5-(5-chlorothiophen-2-yl)-4-cyclobutyl-1H-pyrazol-3-yl)-3-(trifluoromethyl)cyclobutane-1-carboxamide]",++ (“++” High Activity ≥0.7)
3,"O=C(Nc1n[nH]c(-c2ccc(F)cc2)c1C1CCC1)C1CC(F)(F)C1 [Compound 6, N-(4-cyclobutyl-5-(4-fluorophenyl)-1H-pyrazol-3-yl)-3,3-difluorocyclobutane-1-carboxamide]",++ (“++” High Activity ≥0.7)
4,"O=C(Nc1n[nH]c(-c2ccc(Cl)s2)c1C1CCC1)C1CSC1 [Compound 3, N-(5-(5-chlorothiophen-2-yl)-4-cyclobutyl-1H-pyrazol-3-yl)thietane-3-carboxamide]",− (“−” No Activity <0.15)
5,"O=C(CC1CC(F)(F)C1)Nc1n[nH]c(-c2ccc(F)cc2)c1C1CCC1 [Compound 1, N-(4-cyclobutyl-5-(4-fluorophenyl)-1H-pyrazol-3-yl)-2-(3,3-difluorocyclobutyl)acetamide]",++ (“++” High Activity ≥0.7)
6,"O=C(Nc1n[nH]c(-c2ccc(Cl)s2)c1C1CCC1)C1CC(F)(F)C1 [Compound 2, N-(5-(5-chlorothiophen-2-yl)-4-cyclobutyl-1H-pyrazol-3-yl)-3,3-difluorocyclobutane-1-carboxamide]",++ (“++” High Activity ≥0.7)
7,"C[C@@H](C(=O)Nc1n[nH]c(-c2ccc(Cl)s2)c1C1CCC1)C1(C(F)(F)F)CC1 (stereo in doubt) [Compound 5, N-(5-(5-chlorothiophen-2-yl)-4-cyclobutyl-1H-pyrazol-3-yl)-2-(1-(trifluoromethyl)cyclopropyl)propanamide]",+ (“+” Moderate Activity 0.15-0.7)

# — patent US20250171405A1, “PYRAZOLYL COMPOUNDS AS KV7 CHANNEL ACTIVATORS” (Biohaven Therapeutics Ltd., priority 2022, published 2025)
